Data taken from patent US20220380341A1, “INHIBITORS OF HIV-1 NEF FOR THE TREATMENT OF HIV DISEASE” (priority 2018, published 2022).
Like-named read-outs stand apart in the source and are kept apart here.

Tests used:
HIV-1 NefNL4-3 = HIV-1 NefNL4-3 (Human immunodeficiency virus type 1 group M subtype B, UniProt P03406, A33V/T15A/T51N/V11I); assay: Surface plasmon resonance binding to recombinant full-length Nef (NL4-3); conditions: for RU30/RUNef (extent of binding): response units at 30 μM relative to Nef immobilized on the SPR chip; for Nef NL4-3 Binding, SPR 1:1 or 2-site fitting KD1: 1:1 Langmuir fit where the KD2 cell says '1 to 1 fitting', else 2-site fit
TZM-bl cell line = type: cell-based; conditions: human, 1 μM
How it was run: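 TZM-bl cells (HIV-1 LTR-luciferase) infected with HIV-1NL4-3 with compound at 1 μM; luciferase read 48 h later. Percent inhibition normalized to DMSO wild-type infection (0%) and Nef-defective HIV-1 infection (100% of Nef-dependent effect). Viability in uninfected TZM-bl cells by Cell Titer Blue.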

HIV-1NL4-3 = assay: HIV-1 infectivity assay in TZM-bl reporter cell line (LTR-luciferase, 48 h); type: cell-based; conditions: Human immunodeficiency virus 1, TZM-bl
How it was run: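 TZM-bl cells infected with HIV-1NL4-3 ± compound (1 μM), luciferase measured at 48 h. Normalization: DMSO/wild-type = 0% inhibition, DMSO/Nef-defective = 100% of Nef-dependent effect.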

[1] = KD, M, Table 4, SPR fit 2-step induced fit, KD = koff/kon × koff2/(koff2 + kon2)
[2] = Nef NL4-3 Binding, SPR 1:1 or 2-site fitting KD2, Table 1, 2-site fit, second component
[3] = Nef NL4-3 Binding, SPR 2-state fitting KD, Table 1, 2-step induced-fit model
[4] = Table 4, 2-step induced fit, T = 1/koff2
[5] = 1.0 μM, TZM-bl reporter cell line, Table 4, read-out: % Infectivity Inhibition
[6] = 48 h, Table 1, TZM-bl cells, 1 μM, 48 h, 100% = Nef-defective HIV-1, read-out: HIV-1 Infectivity % Inhibition Norm. to Δ-Nef @ 1 μM
[7] = KD, M, Table 4, SPR fit 1:1 Langmuir, KD = koff/kon
[8] = Table 4, 1:1 Langmuir fit, T = 1/koff
[9] = read-out: Nef NL4-3 Binding, SPR 1:1 or 2-site fitting KD2, Table 1, 2-site fit, second component

Compound | Kd (HIV-1 NefNL4-3) [µM] | Kd (HIV-1 NefNL4-3; [1]) [µM] | Kd (HIV-1 NefNL4-3; [2]) [µM] | Kd (HIV-1 NefNL4-3; [3]) [µM] | T, minutes (residence time) (HIV-1 NefNL4-3; [4]) | RU30/RUNef (extent of binding) (HIV-1 NefNL4-3) [E- 03] | % Cell Viability (TZM-bl cell line) [%] | Percent Viability @ 1 μM (TZM-bl cells) (TZM-bl cell line) [%] | inhibition at 1 µM (HIV-1NL4-3; [5]) [%] | inhibition at 1 µM (HIV-1NL4-3; [6]) [%] | Nef NL4-3 Binding, SPR 1:1 or 2-site fitting KD1 (HIV-1 NefNL4-3; Table 1) | Kd (HIV-1 NefNL4-3; [7]) [µM] | T, minutes (residence time) (HIV-1 NefNL4-3; [8]) [E + 00 minutes] | Kd (HIV-1 NefNL4-3; [9]) [µM]
COC(=O)N1CCC(CCc2c(-c3ccc(C(F)(F)F)cn3)nn(-c3nc4ccccc4[nH]3)c2O)CC1 [Compound I-715, methyl 4-{2-[1-(1H-1,3-benzodiazol-2-yl)-5-hydroxy-3-[5-(trifluoromethyl)pyridin-2-yl]-1H-pyrazol-4-yl]ethyl}piperidine-1-carboxylate] | 0.686 | 2.51 | 1.33 | 2.51 | 3.76E + 00 minutes | 5.47 | 99.1 | 99.1 | 25.2 | 25.2 | – | – | – | –
CS(=O)(=O)N1CCC(CCc2c(-c3ccc(C(F)(F)F)cn3)nn(-c3nc4ccccc4[nH]3)c2O)CC1 [Compound I-716] | 1.97 | 4.37 | – | 4.37 | 3.22E + 00 minutes | 5.13 | 97.1 | 97.1 | 22.8 | 22.8 | – | – | – | –
CC(C)OC(=O)N1CCC(CCc2c(-c3ccc(Br)cn3)nn(-c3nc4ccccc4[nH]3)c2O)CC1 [Compound I-717, propan-2-yl4-{2-[1-(1H-1,3-benzodiazol-2-yl)-3-(5-bromopyridin-2-yl)-5-hydroxy-1H-pyrazol-4-yl]ethyl}piperidine-1-carboxylate] | – | – | – | – | – | – | – | 104.1 | – | -1.8 | No Interaction | – | – | –
CS(=O)(=O)N1CCC(Cc2c(-c3ccc(C(F)(F)F)cc3)nn(-c3nc4ccccc4[nH]3)c2O)CC1 [Compound I-718, 1-(1H-1,3-benzodiazol-2-y1)-4-[(1-methanesulfonylpiperidin-4-yl)methyl]-3-[4-(trifluoromethyl)phenyl]-1H-pyrazol-5-ol] | 0.597 | – | – | – | – | 1.22 | 89.1 | 89.1 | 56.3 | 56.3 | – | 0.597 | 3.62 | –
CC(=O)N1CCC(CCc2c(-c3ccc(C(F)(F)F)cc3)nn(-c3nc4ccccc4[nH]3)c2O)CC1 [Compound I-719, 1-(4-{2-[1-(1H-1,3-benzodiazol-2-yl)-5-hydroxy-3-[4-(trifluoromethyl)phenyl]-1H-pyrazol-4-yl]ethyl}piperidin-1-yl)ethan-1-one] | 2.2 | 0.451 | – | 0.451 | 4.44E + 01 minutes | 9.42 | 98.0 | 98.0 | 0 | -8.3 | – | – | – | –
CCOC(=O)N1CCC(c2nn(-c3nc4ccccc4[nH]3)c(O)c2CCC2CCOCC2)CC1 [Compound I-723, ethyl 4-[1-(1H-1,3-benzodiazol-2-yl)-5-hydroxy-4-[2-(oxan-4-yl)ethyl]-1H-pyrazol-3-yl]piperidine-1-carboxylate] | 2.1 | 9.09 | – | 9.09 | 5.21E + 00 minutes | 9.19 | 92.2 | 92.2 | 0 | -18.1 | – | – | – | 12.2
CN(C)S(=O)(=O)N1CCC(c2nn(-c3nc4ccccc4[nH]3)c(O)c2CCC2CCOCC2)CC1 [Compound I-724, 4-[1-(1H-1,3-benzodiazol-2-yl)-5-hydroxy-4-[2-(oxan-4-yl)ethyl]-1H-pyrazol-3-yl]-N,N-dimethylpiperidine-1-sulfonamide] | – | – | – | – | – | – | – | 98.6 | – | 55.8 | No Interaction | – | – | –
CC(C)OC(=O)N1CCC(c2nn(-c3nc4ccccc4[nH]3)c(O)c2CC2CCOCC2)CC1 [Compound I-725, propan-2-yl 4-[1-(1H-1,3-benzodiazol-2-yl)-5-hydroxy-4-[(oxan-4-yl)methyl]-1H-pyrazol-3-yl]piperidine-1-carboxylate] | 3.29 | – | – | – | – | 3.88 | 95.6 | 95.6 | 37.4 | 37.4 | – | 3.29 | 4.73 | –
CN1CCN(CC(=O)N2CCC(c3nn(-c4nc5ccccc5[nH]4)c(O)c3CCc3ccc(F)cc3)CC2)CC1 [Compound I-726, 1-{4-[1-(1H-1,3-benzodiazol-2-yl)-4-[2-(4-fluorophenyl)ethyl]-5-hydroxy-1H-pyrazol-3-yl]piperidin-1-yl}-2-(4-methylpiperazin-1-yl)ethan-1-one] | – | – | – | – | – | – | – | 102.4 | – | -4.6 | No Interaction | – | – | –
CO[C@H](C)C(=O)N1CCC(c2nn(-c3nc4ccccc4[nH]3)c(O)c2CCc2ccc(F)cc2)CC1 [Compound I-727, (2R)-1-{4-[1-(1H-1,3-benzodiazol-2-yl)-4-[2-(4-fluorophenyl)ethyl]-5-hydroxy-1H-pyrazol-3-yl]piperidin-1-yl}-2-methoxypropan-1-one] | – | – | – | – | – | – | – | 95.1 | – | 8.7 | No Interaction | – | – | –
O=C(c1cnccn1)N1CCC(c2nn(-c3nc4ccccc4[nH]3)c(O)c2CCc2ccc(F)cc2)CC1 [Compound I-728, 1-(1H-1,3-benzodiazol-2-yl)-4-[2-(4-fluorophenyl)ethyl]-3-[1-(pyrazine-2-carbonyl)piperidin-4-yl]-1H-pyrazol-5-ol] | 0.142 | – | – | – | – | – | – | 99.1 | – | 53.7 | – | – | – | –
O=C(c1ccccn1)N1CCC(c2nn(-c3nc4ccccc4[nH]3)c(O)c2CCc2ccc(F)cc2)CC1 [Compound I-730, 1-(1H-1,3-benzodiazol-2-yl)-4-[2-(4-fluorophenyl)ethyl]-3-[1-(pyridine-2-carbonyl)piperidin-4-yl]-1H-pyrazol-5-ol] | – | – | – | – | – | – | – | 95.1 | – | 24.6 | No Interaction | – | – | –
O=C(c1cccc(O)n1)N1CCC(c2nn(-c3nc4ccccc4[nH]3)c(O)c2CCc2ccc(F)cc2)CC1 [Compound I-731, 6-{4-[1-(1H-1,3-benzodiazol-2-yl)-4-[2-(4-fluorophenyl)ethyl]-5-hydroxy-1H-pyrazol-3-yl]piperidine-1-carbonyl}pyridin-2-ol] | – | – | – | – | – | – | – | 98.9 | – | 11.5 | No Interaction | – | – | –
CC[C@H](C)[C@H](O)C(=O)N1CCC(c2nn(-c3nc4ccccc4[nH]3)c(O)c2CCc2ccc(F)cc2)CC1 [Compound I-732, (2S,3S)-1-{4-[1-(1H-1,3-benzodiazol-2-yl)-4-[2-(4-fluorophenyl)ethyl]-5-hydroxy-1H-pyrazol-3-yl]piperidin-1-yl}-2-hydroxy-3-methylpentan-1-one] | 0.63 | 4.21 | 1.77 | 4.21 | 3.78E + 00 minutes | 3.09 | 91.0 | 91.0 | 85.5 | 85.5 | – | – | – | –
CC[C@H](O)C(=O)N1CCC(c2nn(-c3nc4ccccc4[nH]3)c(O)c2CCc2ccc(F)cc2)CC1 [Compound I-733, (2S)-1-{4-[1-(1H-1,3-benzodiazol-2-yl)-4-[2-(4-fluorophenyl)ethyl]-5-hydroxy-1H-pyrazol-3-yl]piperidin-1-yl}-2-hydroxybutan-1-one] | 26.9 | – | – | – | – | – | – | 98.8 | – | 56.5 | – | – | – | –
O=C(Cc1ccncc1)N1CCC(c2nn(-c3nc4ccccc4[nH]3)c(O)c2CCc2ccc(F)cc2)CC1 [Compound I-734, 1-{4-[1-(1H-1,3-benzodiazol-2-yl)-4-[2-(4-fluorophenyl)ethyl]-5-hydroxy-1H-pyrazol-3-yl]piperidin-1-yl}-2-(pyridin-4-yl)ethan-1-one] | 0.576 | – | – | – | – | – | – | 96.0 | – | -8.2 | – | – | – | –
O=C(C1CCC(O)CC1)N1CCC(c2nn(-c3nc4ccccc4[nH]3)c(O)c2CCc2ccc(F)cc2)CC1 (centres unmarked) [Compound I-735, 1-(1H-1,3-benzodiazol-2-yl)-4-[2-(4-fluorophenyl)ethyl]-3-[1-(4-hydroxycyclohexanecarbonyl)piperidin-4-yl]-1H-pyrazol-5-ol] | 0.0469 | 0.000498 | – | 0.000498 | 6.44E + 03 minutes | 6.53 | 96.9 | 96.9 | 38.8 | 38.8 | – | – | – | 2.8
